The values that follow are results of earlier work, collected in patent US10898452B2, “Stable formulation for parenteral administration of Tapentadol” (Gruenenthal GmbH, priority 2016, dated 2021).

For the data set the following is noted: more pronounced at higher pH values.

For the compound `CC[C@@H](c1cccc(O)c1)[C@@H](C)CN(C)C` [Tapentadol, (1R,2R)-3-(3-dimethylamino-1-ethyl-2-methyl-propyl)-phenol], the antimicrobial properties result was “exhibits antimicrobial properties”.
